We go through nine molecules from ChEMBL document CHEMBL3886958, “Substituted B-amino acid derivatives as CXCR3 receptor antagonists” (2016).

The structures appear in SMILES notation.

The assay deals with T1, C-X-C chemokine receptor type 3 (Homo sapiens, UniProt P49682).
T1 sequence (P49682 whole entry): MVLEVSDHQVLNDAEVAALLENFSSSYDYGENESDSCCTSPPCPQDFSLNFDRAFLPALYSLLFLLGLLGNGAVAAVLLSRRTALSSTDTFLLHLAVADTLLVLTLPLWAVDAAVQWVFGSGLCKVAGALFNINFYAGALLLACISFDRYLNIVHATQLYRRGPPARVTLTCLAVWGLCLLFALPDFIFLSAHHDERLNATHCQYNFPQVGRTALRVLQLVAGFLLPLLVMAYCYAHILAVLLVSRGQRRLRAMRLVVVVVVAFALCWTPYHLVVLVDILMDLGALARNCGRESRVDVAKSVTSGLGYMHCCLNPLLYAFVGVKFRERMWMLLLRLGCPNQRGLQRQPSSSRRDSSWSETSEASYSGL
As for `COc1cc(CN(CC2CCCC2)C(CC(=O)O)c2ccc(Cl)cc2)ccc1CCCN1C(=O)CCC1=O` (centres undefined), inhibition was half-maximal at 179 nM (IC50). As to `CCCN(Cc1ccc(OCCN2C(=O)CCC2=O)c(OC)c1)[C@H](C(=O)O)c1ccc(Cl)c(Cl)c1`, the IC50 came out at 495 nM.

For the molecule `COc1cc(CN(CC2CCCC2)C(C(=O)O)c2ccc(Cl)cc2)ccc1OCCN1C(=O)CCC1=O` (centres undefined), the IC50 was found to be 467 nM. In turn, `CCOC(=O)CC(c1ccc2c(c1)CCO2)N(Cc1ccc(OCCN2C(=O)CCC2=O)c(OC)c1)CC(C)C` (centres undefined) came in with an IC50 of 686 nM. Molecule `CCCN(Cc1ccc(OCCN2C(=O)CCC2=O)c(CC)c1)C(CC(=O)O)c1ccc(Cl)c(Cl)c1` (centres undefined) came in with an IC50 of 81 nM.

The molecule `COc1cc(CN(CC2CC2)C(CC(=O)O)c2ccc(Cl)c(F)c2)ccc1SCCN1C(=O)CCC1=O` (centres undefined) showed an IC50 of 40 nM. The result for `CCN(Cc1ccc(OCCN2C(=O)CCC2=O)c(OC)c1)C(c1ccc(Cl)cc1)C(C)(C)C(=O)O` (centres undefined) reads 295 nM; that for `COc1cc(CN(CC2CCCCC2)[C@@H](CC(=O)O)c2ccc(Cl)c(Cl)c2)ccc1OCCN1C(=O)CN(C)C1=O`, 187 nM; that for `O=C(O)CC(c1ccc(Cl)c(Cl)c1)N(Cc1ccc(OCCN2C(=O)CCC2=O)c(F)c1)CC1CCCCC1` (centres undefined), 435 nM.
